Experiment [1] in a line: competition ELISA for LPS-binding capacity. Also on record: species or system E. coli. To be noted: competition with biotinylated LALF32-51 at 0.2 μM; analogous peptides 10 μM to 0.01 μM; FIG. 1A. The procedure: This assay consists on a competition ELISA system (Hardy E., et al (1994) Enhanced ELISA sensitivity using TCA for efficient coating of biologically active LPS or Lipid A to the solid phase. J. Immunol. Meth. Vol. 176:111-116). Polystyrene plates (Costar, USA) were coated with LPS from E. coli 0111:B4 (1 μg/ml) with 0.2% trichloroacetic acid (TCA). Plates were incubated overnight at 37° C. and further washed ten times with 1× phosphate-buffered saline (1×PBS) plus 0.1% tween-20 (washing solution). The binding of analogous peptides to the LPS fixed to the solid surface was evaluated by a competition ELISA with the biotinylated LALF32-51 peptide at 0.2 μM, obtaining a 90% of maximum LPS binding. To estimate the inhibition curves, different concentrations of the analogous peptides were used, from 10 μM to 0.01 μM and the curve of the LALF32-51 peptide as experimental control. The biotinylated LALF32-51 was incubated in the presence of the analogous peptides for 2 h at 37° C. and plates were washed 5 times after that time with washing solution. The biotinylated LALF32-51 bound to LPS was detected by incubating for 45 min at 37° C. with a streptavidin-peroxidase conjugate at a 1:2,000 dilution. Plates were washed 5 times with washing solution and the substrate solution was added (0.05 M citrate-phosphate buffer, pH 5.5, 1 tablet of 3,3′,5,5′-tetramethylbenzidine and 0.025% hydrogen peroxide). After 15 min incubation, the reaction was stopped by adding 2 M sulphuric acid. The absorbance was quantified at 450 nm in a plate reader (Sensident Scan). There is a correlation between optical density values and the LPS-binding capacity of analogous peptides. Analogous peptides with higher LPS-binding capacity show inhibition curves of lower O.D. compared to the inhibition curve of the LALF32-51 peptide.
Analogous peptides with lower LPS-binding capacity present inhibition curves with […], compared to the inhibition curve of the LALF32-51 peptide.
FIG. 1B represents the inhibition percentages of analogous peptides, at a fixed […] concentration, according to their capacity to displace the binding of the biotinylated LALF32-51 (0.2 μM) to LPS adsorbed to the solid surface. % de inhibición={1−(([O.D.]sample−[O.D.]min)/([O.D.]max−[O.D.]min))}×100 [O.D.] sample: Optical density value in the presence of a fixed concentration of analogous peptides; [O.D.] min: ELISA background; [O.D.] max: Optical density value without analogous peptides.

Experiment [2] in a line: competition ELISA for heparin-binding capacity. The note with it: for heparin binding: peptides at 2 μM with 250 units of heparin, FIG. 2. The procedure: This assay consists on a competition ELISA system, similar to the previously described one. The biotinylated LALF32-51 peptide was adsorbed to polystyrene plates (Costar, USA) in 1×PBS and incubated overnight at 4° C. Analogous peptides L-2, L-8, L-12 and L-20 were mixed at 2 μM with 250 units of heparin (Sodic Heparin, 5,000 U/ml, Liorad) in 1×PBS plus 0.1% of bovine serum albumin (BSA). Afterwards, mixes were added to an ELISA plate containing 0.02 μM of the biotinylated LALF32-51 peptide adsorbed to the solid surface. After a 1 h-incubation at room temperature, plates were washed five times with washing solution and the biotinylated LALF32-51 peptide fixed to the solid surface was detected by incubating for 45 min at 37° C. with streptavidin-peroxidase conjugate at a 1:2,000. Afterwards, plates were washed five times with washing solution and the substrate solution was added. After an additional incubation for 15 min, the reactions were stopped with 2 M sulphuric acid solution. The lack of heparin binding to the analogous peptides correlates with the […] optical density, because they are unable to displace the heparin bound to the biotinylated LALF32-51 peptide adsorb to the solid surface. The unlabeled LALF32-51 peptide at a 100× molar excess was used as control of the assay.

The test system of a further experiment is IFN-α gene. Briefly: IFN-α gene expression in human mononuclear cells (RT-PCR). To be noted: 40 μg/ml, 18 h; for expression of the IFN-α gene compared to the LALF32-51 peptide: FIG. 3B; for expression of the IFN-α gene: mRNA normalized against β-actin, FIG. 3A. The format is cell-based. How it is done: (§1) For this assay, human mononuclear cells were isolated by a Ficoll-Hypaque gradient from a leukocyte concentrate or “Buffy Coat” of a donor. Up to 5×10^6 were seeded in 24-well plates in RPMI 1640 medium supplemented with 10% calf fetal serum. Each peptide was further added at 40 μg/ml in a 0.1 ml volume of RPMI medium and cells were cultured for 18 h at 37° C. and 5% of CO2. Total RNA was extracted by using the TriReagent method. Afterwards, the expressions of IFN-α, IFN-γ and IL-12 genes were determined by the reverse transcription reaction and PCR amplification (RT-PCR kit, Perkin Elmer). Results are shown as relative amounts of messenger RNA normalized against expression levels of the β-actin housekeeping gene.

The next experiment deals with IFN-γ gene. Briefly: IFN-γ gene expression in human mononuclear cells (RT-PCR). To be noted: 40 μg/ml, 18 h; mRNA normalized against β-actin; FIG. 3A. The format is cell-based. The procedure: as §1
A further experiment deals with IL-12 gene. Briefly: IL-12 gene expression in human mononuclear cells (RT-PCR). The format is cell-based. The note with it: 40 μg/ml, 18 h; mRNA normalized against β-actin; FIG. 3A. How it is done: as §1
For a further experiment, the system named is TC-1 tumor cells. Briefly: anti-tumoral effect in the TC-1 tumor model. The format is in vivo. The note with it: 4 mg per kg s.c.; for survival of mice / tumor progression (tumor mass): at 100 mm^3 tumor volume and after 10 days, FIG. 4; for survival of animals compared to the LALF32-51 peptide: Log Rank, *p<0.05. The procedure:
Eight-to-ten weeks-old C57BI/6 female mice were used for this assay (n=10 animals per experimental group). For tumor graft, TC-1 tumor cells derived from C57BI/6 malignant epithelial lung cells were used, being resuspended in phosphate-buffered saline (PBS). An amount of 50,000 cells in a 200 μl volume was inoculated to mice by subcutaneous route in the right hind limb. The first peptide administration was carried out by subcutaneous route in the right flank once tumor reached a 100 mm^3 volume, and the second was carried out after 10 days. In this assay, a 4 mg per kg of weight dose was evaluated (80 μg/mice). Animal survival and tumor mass were the parameters evaluated to measure the anti-tumoral effect peptides of interest, as shown in FIGS. 4A and 4B. […] The Log Rank method was used as statistical analysis for detecting significant differences between groups.

As for “HYAIKPTFRRLKWKYKGKFW [Peptide L-3, alanine-substituted analogue of LALF 32-51]”, the LPS-binding capacity result in experiment [1] was “higher LPS binding capacity”.
As to “HYRIKPTARRLKWKYKGKFW [Peptide L-8, alanine-substituted analogue of LALF 32-51]”, the LPS-binding capacity result in experiment [1] is given as “lose the capacity to bind LPS”. The heparin binding entry in experiment [2] is “unable to bind heparin”. In the experiment on IFN-α gene, the “expression of the IFN-α gene compared to the LALF32-51 peptide” value was “more effective” and the “expression of the IFN-α gene” value was “capable of inducing the expression”. Further, the “expression of the IFN-γ gene” value in the experiment with IFN-γ gene was “capable of inducing the expression”. The “expression of the IL-12 gene” value with IL-12 gene was “capable of inducing the expression”. In addition, in the experiment on TC-1 tumor cells, the survival of mice result is “prolonging survival of mice”, the “tumor progression (tumor mass)” value is listed as “effective for inhibiting tumor progression” and the “survival of animals compared to the LALF32-51 peptide” value is “significantly increase the survival of animals”.
Turning to “HYRIKPTFARLKWKYKGKFW [Peptide L-9, alanine-substituted analogue of LALF 32-51]”, the LPS-binding capacity result in experiment [1] is listed as “retaining that capacity”.
For “HYRIKPTFRRLAWKYKGKFW [Peptide L-12, alanine-substituted analogue of LALF 32-51]”, the LPS-binding capacity entry in experiment [1] is “lose the capacity to bind LPS”. Also, the heparin binding result in experiment [2] is “unable to bind heparin”. Also, in the experiment with IFN-α gene, the “expression of the IFN-α gene compared to the LALF32-51 peptide” value is reported as “more effective” and the “expression of the IFN-α gene” value is “capable of inducing the expression”. Also, in the experiment on IFN-γ gene, the “expression of the IFN-γ gene” value is listed as “capable of inducing the expression”. In the experiment with IL-12 gene, the “expression of the IL-12 gene” value was “capable of inducing the expression”. In the experiment on TC-1 tumor cells, the survival of mice entry is recorded as “prolonging survival of mice”, the “tumor progression (tumor mass)” value was “effective for inhibiting tumor progression” and the “survival of animals compared to the LALF32-51 peptide” value was “significantly increase the survival of animals”.
Consider “HYRIKPTFRRLKWKYKGKAW [Peptide L-19, alanine-substituted analogue of LALF 32-51]”, for which, in experiment [1], the LPS-binding capacity entry is “retaining that capacity”.
For the sequence “HYRIKPTFRRLKWKYKGKFA [Peptide L-20, alanine-substituted analogue of LALF 32-51]”, the LPS-binding capacity entry in experiment [1] was “lose the capacity to bind LPS”. Also, the heparin binding result in experiment [2] is reported as “unable to bind heparin”. Also, in the experiment on IFN-α gene, the “expression of the IFN-α gene” value is reported as “capable of inducing the expression”. The “expression of the IFN-γ gene” value with IFN-γ gene is “capable of inducing the expression”. The “expression of the IL-12 gene” value with IL-12 gene was “capable of inducing the expression”. Further, in the experiment with TC-1 tumor cells, the survival of mice result was “prolonging survival of mice”, the “tumor progression (tumor mass)” value was “effective for inhibiting tumor progression” and the “survival of animals compared to the LALF32-51 peptide” value is “significantly increase the survival of animals”.
In the case of “HYRIKPTFRRLKWKYKGKFW [LALF32-51, reference compound]”, the “heparin binding (assay control)” value in experiment [2] (unlabeled peptide at a 100× molar excess) was “binding to heparin”.
